Source: the supplement of paper PMC10627819

Assays:
B. subtilis 168 [1] = test: fitness (endpoint OD595 vs no drug) (fraction); higher = more growth
Procedure, shortened: (§1)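 Volumes were 30 µl per well, or 55 µl for S. pneumoniae, in 384-well plates inoculated at OD595 0.01. Media were TSB, LB Lennox or CY at 37 °C, and OD595 was read every 30 min for 14 h with first-reading background subtraction. Fitness is the ratio of optical density at stationary-phase entry to the robust mean of no-drug controls. That ratio is capped at 1.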

S. aureus DSM 20231 [2] = test: as above
Procedure, shortened: as §1

S. aureus Newman [3] = test: as above
Procedure, shortened: as §1

S. pneumoniae D39V [4] = test: as above
Procedure, shortened: as §1

B. subtilis 168 [5] = test: Bliss interaction score (quartile over a dose matrix) (fitness difference); higher = more antagonism (negative = synergy)
Procedure, shortened: (§2)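 Fitness was defined as normalised growth: OD595 at the start of stationary phase divided by the plate's robust no-drug mean and capped at 1. Single-drug fitness was inferred from combination measurements. The Bliss score is observed fitness minus the product of the single-drug values, summarised by quartiles across technical, biological and donor/recipient replicates.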

S. aureus DSM 20231 [6] = test: as above
Procedure, shortened: as §2

S. aureus Newman [7] = test: as above
Procedure, shortened: as §2

S. pneumoniae D39V [8] = test: as above
Procedure, shortened: as §2
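For Bliss interaction score (quartile over a dose matrix) in this document: first quartile when negative (synergy) and third quartile when positive (antagonism).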

CO/N=C(\C(=O)N[C@@H]1C(=O)N2C(C(=O)O)=C(COC(C)=O)CS[C@H]12)c1csc(N)n1 [Cefotaxime] + C[C@@H]1O[C@@H]1P(=O)(O)O [Fosfomycin]
fitness, one replicate
Conditions	partner 0.781 µg/mL	partner 1.562 µg/mL	partner 3.124 µg/mL	partner 6.248 µg/mL
B. subtilis 168 [1], first compound 0.00775 µg/mL	–	0.573	0.446	0.274
B. subtilis 168 [1], first compound 0.0155 µg/mL	–	0.443	0.362	0.198
B. subtilis 168 [1], first compound 0.031 µg/mL	–	0.319	0.225	0.156
B. subtilis 168 [1], first compound 0.0625 µg/mL	–	0.454	0.413	0.34
B. subtilis 168 [1], first compound 0.125 µg/mL	–	0.472	0.389	0.238
B. subtilis 168 [1], first compound 0.25 µg/mL	–	0.367	0.337	0.186
S. aureus DSM 20231 [2], first compound 0.039 µg/mL	0.718	0.673	0.504	–
S. aureus Newman [3], first compound 0.039 µg/mL	0.58	0.511	0.202	–
S. aureus Newman [3], first compound 0.312 µg/mL	0.341	0.205	0.117	–

Conditions	fitness
B. subtilis 168 [1], first compound 0.5 µg/mL, partner 1.562 µg/mL	0.244
B. subtilis 168 [1], first compound 0.5 µg/mL, partner 3.124 µg/mL	0.194
B. subtilis 168 [1], first compound 0.5 µg/mL, partner 6.248 µg/mL	0.16
B. subtilis 168 [1], first compound 1 µg/mL, partner 1.562 µg/mL	0.134
B. subtilis 168 [1], first compound 1 µg/mL, partner 3.124 µg/mL	0.102
B. subtilis 168 [1], first compound 1 µg/mL, partner 6.248 µg/mL	0.0644
B. subtilis 168 [1], first compound 2 µg/mL, partner 1.562 µg/mL	0.13
B. subtilis 168 [1], first compound 2 µg/mL, partner 3.124 µg/mL	0.117
B. subtilis 168 [1], first compound 2 µg/mL, partner 6.248 µg/mL	0.054
S. aureus DSM 20231 [2], first compound 0.078 µg/mL, partner 0.781 µg/mL	0.65
S. aureus DSM 20231 [2], first compound 0.078 µg/mL, partner 1.562 µg/mL	0.608
S. aureus DSM 20231 [2], first compound 0.078 µg/mL, partner 3.124 µg/mL	0.559
S. aureus DSM 20231 [2], first compound 0.156 µg/mL, partner 0.781 µg/mL	0.624
S. aureus DSM 20231 [2], first compound 0.156 µg/mL, partner 1.562 µg/mL	0.62
S. aureus DSM 20231 [2], first compound 0.156 µg/mL, partner 3.124 µg/mL	0.532
S. aureus DSM 20231 [2], first compound 0.312 µg/mL, partner 0.781 µg/mL	0.683
S. aureus DSM 20231 [2], first compound 0.312 µg/mL, partner 1.562 µg/mL	0.623
S. aureus DSM 20231 [2], first compound 0.312 µg/mL, partner 3.124 µg/mL	0.518
S. aureus Newman [3], first compound 0.078 µg/mL, partner 0.781 µg/mL	0.628
S. aureus Newman [3], first compound 0.078 µg/mL, partner 1.562 µg/mL	0.536
S. aureus Newman [3], first compound 0.078 µg/mL, partner 3.124 µg/mL	0.21
S. aureus Newman [3], first compound 0.156 µg/mL, partner 0.781 µg/mL	0.536
S. aureus Newman [3], first compound 0.156 µg/mL, partner 1.562 µg/mL	0.497
S. aureus Newman [3], first compound 0.156 µg/mL, partner 3.124 µg/mL	0.206
S. aureus Newman [3], first compound 0.625 µg/mL, partner 0.781 µg/mL	0.17
S. aureus Newman [3], first compound 0.625 µg/mL, partner 1.562 µg/mL	0.185
S. aureus Newman [3], first compound 0.625 µg/mL, partner 3.124 µg/mL	0.084
S. aureus Newman [3], first compound 1.25 µg/mL, partner 0.781 µg/mL	0.0664
S. aureus Newman [3], first compound 1.25 µg/mL, partner 1.562 µg/mL	0.033
S. aureus Newman [3], first compound 1.25 µg/mL, partner 3.124 µg/mL	0.0169
S. aureus Newman [3], first compound 2.5 µg/mL, partner 0.781 µg/mL	0.0252
S. aureus Newman [3], first compound 2.5 µg/mL, partner 1.562 µg/mL	0.0136
S. aureus Newman [3], first compound 2.5 µg/mL, partner 3.124 µg/mL	0.0374
S. pneumoniae D39V [4], first compound 0.0018 µg/mL, partner 1.25 µg/mL	0.958
S. pneumoniae D39V [4], first compound 0.0018 µg/mL, partner 2.5 µg/mL	0.959
S. pneumoniae D39V [4], first compound 0.0018 µg/mL, partner 5 µg/mL	0.761
S. pneumoniae D39V [4], first compound 0.0035 µg/mL, partner 1.25 µg/mL	0.962
S. pneumoniae D39V [4], first compound 0.0035 µg/mL, partner 2.5 µg/mL	0.943
S. pneumoniae D39V [4], first compound 0.0035 µg/mL, partner 5 µg/mL	0.736
S. pneumoniae D39V [4], first compound 0.007 µg/mL, partner 1.25 µg/mL	0.897
S. pneumoniae D39V [4], first compound 0.007 µg/mL, partner 2.5 µg/mL	0.778
S. pneumoniae D39V [4], first compound 0.007 µg/mL, partner 5 µg/mL	0.533

Conditions	Bliss interaction score
B. subtilis 168 [5]	0.0459
S. aureus DSM 20231 [6]	0.143
S. aureus Newman [7]	0.113
S. pneumoniae D39V [8]	-0.0644
